Reference: patent US7402687B2, “Dihydrobenzofuran derivatives and uses thereof” (Wyeth, priority 2005, dated 2008)

Legend:
[1] = biological target: T1, human serotonin 5-HT2C receptor (Homo sapiens, UniProt P28335); test: Saturation binding of [125I]DOI at the human 5-HT2C receptor; conditions: saturation binding with increasing concentrations of [125I]DOI; read-out: dissociation constant, KD
T1 construct: expressed in transfected cells; host or cells: CHO (Chinese Hamster Ovary) cells; membrane preparation
T1 sequence (P28335 33-458): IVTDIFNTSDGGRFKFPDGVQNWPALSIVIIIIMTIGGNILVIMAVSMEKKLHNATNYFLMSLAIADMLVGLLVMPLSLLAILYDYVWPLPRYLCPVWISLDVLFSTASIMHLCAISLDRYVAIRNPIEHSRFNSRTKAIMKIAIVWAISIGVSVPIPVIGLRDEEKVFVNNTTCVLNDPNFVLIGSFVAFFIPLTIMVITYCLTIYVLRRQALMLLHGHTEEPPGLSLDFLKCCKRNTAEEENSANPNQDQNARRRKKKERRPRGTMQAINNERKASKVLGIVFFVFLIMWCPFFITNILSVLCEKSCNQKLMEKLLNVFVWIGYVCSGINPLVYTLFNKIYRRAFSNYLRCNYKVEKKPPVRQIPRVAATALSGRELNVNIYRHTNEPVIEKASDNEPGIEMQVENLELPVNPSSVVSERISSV
Description: To evaluate the affinity of various compounds of formula I for activity at the 5-HT2C receptor, a CHO (Chinese Hamster Ovary) cell line transfected with the cDNA expressing the human 5-hydroxytryptamine-2C (h5-HT2C) receptor is maintained in DMEM (Dulbecco's Modified Eagle Media) supplied with fetal calf serum, glutamine, and the markers: guaninephosphoribosyl transferase (GTP) and hypoxanthinethymidine (HT). The cells are allowed to grow to confluence in large culture dishes with intermediate changes of media and splitting. Upon reaching confluence, the cells are harvested by scraping. The harvested cells are suspended in half volume of fresh physiological phosphate buffered saline (PBS) solution and centrifuged at low speed (900×g). This operation is repeated once. The collected cells are then homogenized with a polytron at setting #7 for 15 sec in ten volumes of 50 mM Tris.HCl, pH 7.4 and 0.5 mM EDTA. […] The resulting pellet is resuspended in a small volume of Tris.HCl buffer and the tissue protein content is determined in aliquots of 10-25 μL volumes. […]
The dissociation constant, KD of [^125I] […] The bound complex caught on the filter disk is dried in a vacuum oven heated to 60° C. and the radioactivity measured by liquid scintillation with 40 μL Microscint-20 scintillant in a Packard TopCount® equipped with six (6) photomultiplier detectors.

[2] = biological target: T2, human 5-hydroxytryptamine-2C (h5-HT2C) receptor (Homo sapiens, UniProt P28335); test: [125I]DOI competition binding at h5-HT2C receptor in transfected CHO cell membranes; conditions: [125I]DOI displacement, CHO membranes expressing h5-HT2C; 95% confidence interval in adjacent column
T2 construct: expressed in transfected cells; host or cells: CHO (Chinese Hamster Ovary) cells; membrane preparation
T2 sequence (P28335 33-458): T1 sequence (P28335 33-458)

SMILES: COc1cc(CC(C)N)c(OC)cc1I (centres unmarked) [[^125I] DOI]
- Kd [1]: 0.4 nM

SMILES: CSc1ccc2c(c1)C(N1CCN(C)CC1)Cc1ccccc1S2 (centres unmarked) [Methiothepin]
- Ki [2]: 4.6 nM
